# Assay results published in paper PMC8980233, “Differentiating the Neuropharmacological Properties of Nicotinic Acetylcholine Receptor-Activating Alkaloids” (Frontiers in Pharmacology, 2022).
# Counter-ions that a name gives are not always drawn.
# Experiments:
# C57Bl/6 mice = experiment: Tolerability test (body weight, body temperature, passive signs, manipulation responses); conditions: for tolerability: highest dose 10 mg/kg i.p.; for BT (°C) naïve / Manipulations naïve / Passive naïve: baseline; for BW Day 1 / BW Day 2: mean ± SD
# Description: In brief, mice were single-housed prior to the test and evaluated for baseline body weight, body temperature, and other parameters. […] On day 1, the mice were i. p. injected with saline (vehicle) or a test compound at 10 ml/kg body weight. Then, body temperature was measured at 15 min, 4 h, and 24 h and body weight on days 1 and 2. Neurological and motor parameters were evaluated at 15 min, 2 h, and 4 h after administration. The list of parameters is provided in Supplementary Figure S1 in Supplementary Material S1.
# In addition, within 5 min after the 15-min observation period, mice were placed in open-field chambers for 30 min to determine their general motor activity (distance traveled), ambulatory time, and number of rears. The open-field chambers were made of Plexiglas (27.3 × 27.3 × 20.3 cm; Med Associates Inc, St Albans, VT, United States) surrounded by infrared photobeam sources (16 × 16 × 16 beams). Horizontal activity (distance and time traveled) and vertical activity (number and frequency of rears) were measured by consecutive beam breaks. At the end of each open-field test session, the chambers were thoroughly cleaned with NOLVASAN® solution (Zoetis Services LLC, Parsippany, NJ, United States). Four mice were used per treatment condition. Mice were terminated after completion of the last tolerability observation.
# All compounds were diluted in saline, and the pH was adjusted to approximately 7.0 with HCl or NaOH on the day of the experiment. […] The doses were calculated based on the free base molecular weight of the compounds.
# For the tolerability tests, passive signs and manipulation responses were analyzed for effects of the treatment by the Kruskal–Wallis test. Body temperature and body weight data were analyzed by two-way repeated measures analysis of variance (ANOVA). The total distance and time traveled and number and frequency of rears in the open-field activity test were analyzed by one-way ANOVA, followed by the Tukey post-hoc test. For the analyses of the zebrafish NTT data, one-way ANOVA was used, followed by Dunnett’s multiple comparison test, if it passed the Shapiro-Wilk normality test. […] An effect was considered significant if p < 0.05. The half maximal effective concentration (EC50) and half-maximal inhibitory concentration (IC50) for the receptor pharmacology and neurotransmitter release assay were determined by using nonlinear regression analysis. Statistical analyses were conducted using GraphPad Prism.
# [1] = tested on: dopamine release from striatal synaptosomes; experiment: In vitro [3H]dopamine release from crude striatal synaptosomes; format: biochemical, rat; conditions: for EC50: striatal synaptosomes
# Description: In brief, male Sprague Dawley rats (200–225 g) were terminated by cervical dislocation followed by decapitation. The striatums or hippocampi were dissected and homogenized in ice-cold 0.32 M sucrose using a Dounce homogenizer. The homogenates were centrifuged at 100 x g for 5 min to pellet cell debris. The supernatants were collected and centrifuged at 17,000 x g for 10 min at 4°C to pellet crude synaptosomes.
# The [^3H]norepinephrine- or [^3H]dopamine-treated crude synaptosomes were loaded onto closed filter chambers containing Whatman® Grade GF/C Glass Microfiber filters (Sigma-Aldrich, Merck KGaA, Darmstadt, Germany) and placed in a superfusion system. […] To ensure an even flow over the synaptosomal bed, trapped air bubbles were removed from the filters prior to collection of the fractions. After a superfusion period of 40 min, three basal fractions (1.5 ml/fraction) were collected first, followed by three fractions (1.5 ml/fraction) containing the test compound. Two additional fractions were collected in the presence of 30 mM KCl to depolarize the synaptosomes. […] Once all fractions were collected, the filters holding the crude synaptosome samples were removed and dried overnight at room temperature. On the following day, the scintillation cocktail was added and the filters were counted to determine residual radioactivity.
# (§1) Compound-evoked release of neurotransmitters was calculated by subtracting the counts per minute (CPM) in the two basal fractions collected immediately prior to compound addition from those in the two fractions collected immediately following compound addition. The compound-evoked release was then expressed as a percentage of the basal release from that chamber. Potassium-evoked release was calculated by subtracting the CPM in the fraction immediately prior to KCl addition from the CPM in the […] immediately following potassium addition. Stimulated release was calculated as the percentage of basal release for that chamber. The increase in stimulated release above the baseline (no compound) release for that experimental run was determined, and the latter values were plotted on the graphs. Dose–response curves were determined using non-linear curve fitting in Prism (GraphPad Software, Inc, San Diego, CA, United States). All experiments were repeated at least three times.
# [2] = tested on: norepinephrine release from hippocampal synaptosomes; experiment: In vitro [3H]norepinephrine release from crude hippocampal synaptosomes; format: biochemical, rat
# Description: In vitro neurotransmitter assays using crude synaptosome preparations were conducted by Gifford Biosciences Limited (Birmingham, UK) based on the previously described protocols ([Clarke and Reuben, 1996]; [Gifford et al., 2000]). In brief, male Sprague Dawley rats (200–225 g) were terminated by cervical dislocation followed by decapitation. The striatums or hippocampi were dissected and homogenized in ice-cold 0.32 M sucrose using a Dounce homogenizer. The homogenates were centrifuged at 100 x g for 5 min to pellet cell debris. The supernatants were collected and centrifuged at 17,000 x g for 10 min at 4°C to pellet crude synaptosomes. The pellets were resuspended in 5 ml Krebs buffer, pH 7.4 (in mM (pH 7.4): 120 NaCl, 3.3 KCl, 1.2 MgSO4, 1.3 CaCl2, 1.2 K2HPO4, 25 HEPES, 11 glucose, 0.01 ascorbic acid, 0.025 pargyline, and 0.1% BSA containing 2 μCi/ml [^3H]norepinephrine for hippocampal synaptosomes or 1 μCi/ml [^3H]dopamine for striatal synaptosomes and incubated for 15 min at 35°C with gentle shaking.
# The [^3H]norepinephrine- or [^3H]dopamine-treated crude synaptosomes were loaded onto closed filter chambers containing Whatman® Grade GF/C Glass Microfiber filters (Sigma-Aldrich, Merck KGaA, Darmstadt, Germany) and placed in a superfusion system. Preoxygenated Krebs buffer was perfused through the chambers at a rate of 1 ml/min at 37 °C using an 8-channel peristaltic pump. To ensure an even flow over the synaptosomal bed, trapped air bubbles were removed from the filters prior to collection of the fractions. After a superfusion period of 40 min, three basal fractions (1.5 ml/fraction) were collected first, followed by three fractions (1.5 ml/fraction) containing the test compound. Two additional fractions were collected in the presence of 30 mM KCl to depolarize the synaptosomes. A 0.4-ml aliquot of each fraction was then transferred to a counting plate, and a scintillation cocktail was added to measure the radioactivity using a Wallac® TriLux 1450 MicroBeta counter (PerkinElmer Life Sciences, Zaventem, Belgium). Once all fractions were collected, the filters holding the crude synaptosome samples were removed and dried overnight at room temperature. On the following day, the scintillation cocktail was added and the filters were counted to determine residual radioactivity.
# as §1
# [3] = tested on: zebrafish (Danio rerio; strain AB); experiment: Zebrafish novel tank test (NTT)
# Description: Adult male and female wild-type zebrafish were treated with the compounds for 20 min in a final volume of 50 ml in a 250-ml treatment beaker one fish at a time. The fish were briefly rinsed in fresh system water, and then immediately transferred to a trapezoidal tank (14.6 cm height x 5.5 cm width x 27.9 cm top length and x 23.6 cm bottom length) filled with 1.5 L system water. The behavior of the fish was monitored for the next 5 min by using the Noldus EthoVision XT system (Wageningen, Netherlands), with the camera placed approximately 1 m from the test tank. The part of the tank filled with water (11.5 cm height) was virtually divided into top, center, and bottom of equal heights (approximately 3.8 cm per segment) for the analysis. The average time spent at the top and bottom portions of the tank was analyzed to determine the anxiety-like behavior of fish. The average total distance travelled and freezing time were calculated to determine the effects of the compounds on the general behavior of fish. Freezing was defined by a complete cessation of movement except for gills and eyes ([Kalueff et al., 2013]). A minimum of 12 fish (6 females and 6 males) per condition were used for the study. The experimenter was blind to the test conditions.
# If not, the dose was reduced until no obvious signs of tolerability problems were observed. […] The concentrations were calculated based on the free base molecular weight. Buspirone—a clinical anxiolytic drug used acutely and chronically to investigate the change in the anxiety-like behavior ([Maximino, et al., 2011]; [Maximino, et al., 2013])—was included as a positive control.
smiles,measurement,setting,value
"O=C(c1ccc(Cl)o1)N1CC2CNCC2C1 (stereo not drawn) [AZD1446, 3-(5-chloro-2-furoyl)-3,7-diazabicyclo[3.3.0]octane]",tolerability,C57Bl/6 mice,well tolerated
same,EC50,[1],8.4 µM
same,change in norepinephrine release,[2],negligible change
"O=C1CC2(CCCC2)CC(=O)N1CCCCN1CCN(c2ncccn2)CC1 [buspirone, buspirone hydrochloride]",freezing time,[3]; 100 mg/L,increased
same,total distance traveled,[3]; 100 mg/L,decreased
same,time spent at the top,"[3]; all three doses tested (10, 30, and 100 mg/L)",increased the time spent at the top
same,time spent at the bottom,[3]; middle two doses (10 and 30 mg/L),reduced the time spent at the bottom
CC(=O)OCC[N+](C)(C)C [acetylcholine],EC50,[1],0.27 µM
same,EC50,[2]; hippocampal synaptosomes,13.5 µM
O=C(N[C@H]1CN2CCC1CC2)c1ccc(Cl)cc1 [PNU282987],BT (°C) naïve,C57Bl/6 mice; 1 mg/kg group,36.48 ± 0.38 °C
same,Manipulations naïve,C57Bl/6 mice; 1 mg/kg group,2.00 ± 1.63
same,Passive naïve,C57Bl/6 mice; 1 mg/kg group,0.25 ± 0.50
same,BT (°C) 15min,C57Bl/6 mice; 1 mg/kg i.p.,38.13 ± 0.15 °C
same,BT (°C) 4hr,C57Bl/6 mice; 1 mg/kg i.p.,36.60 ± 0.18 °C
same,BT (°C) 24hr,C57Bl/6 mice; 1 mg/kg i.p.,36.85 ± 0.66 °C
same,Manipulations 15min,C57Bl/6 mice; 1 mg/kg i.p.,1.25 ± 1.26
same,Manipulations 2hr,C57Bl/6 mice; 1 mg/kg i.p.,0.75 ± 0.50
same,Manipulations 4hr,C57Bl/6 mice; 1 mg/kg i.p.,0.75 ± 0.96
same,Passive 15min,C57Bl/6 mice; 1 mg/kg i.p.,0.50 ± 0.58
same,Passive 2hr,C57Bl/6 mice; 1 mg/kg i.p.,0.00 ± 0.00
same,Passive 4hr,C57Bl/6 mice; 1 mg/kg i.p.,0.00 ± 0.00
same,BW Day 1,C57Bl/6 mice; 1 mg/kg i.p.,24.03 ± 2.46
same,BW Day 2,C57Bl/6 mice; 1 mg/kg i.p.,23.78 ± 2.61
same,BT (°C) naïve,C57Bl/6 mice; 3 mg/kg group,36.50 ± 0.24 °C
same,Manipulations naïve,C57Bl/6 mice; 3 mg/kg group,0.75 ± 0.96
same,Passive naïve,C57Bl/6 mice; 3 mg/kg group,0.25 ± 0.50
same,BT (°C) 15min,C57Bl/6 mice; 3 mg/kg i.p.,37.85 ± 0.54 °C
same,BT (°C) 4hr,C57Bl/6 mice; 3 mg/kg i.p.,36.63 ± 0.21 °C
same,BT (°C) 24hr,C57Bl/6 mice; 3 mg/kg i.p.,36.40 ± 0.12 °C
same,Manipulations 15min,C57Bl/6 mice; 3 mg/kg i.p.,0.75 ± 0.96
same,Manipulations 2hr,C57Bl/6 mice; 3 mg/kg i.p.,0.50 ± 0.58
same,Manipulations 4hr,C57Bl/6 mice; 3 mg/kg i.p.,0.25 ± 0.50
same,Passive 15min,C57Bl/6 mice; 3 mg/kg i.p.,0.50 ± 0.58
same,Passive 2hr,C57Bl/6 mice; 3 mg/kg i.p.,0.00 ± 0.00
same,Passive 4hr,C57Bl/6 mice; 3 mg/kg i.p.,0.00 ± 0.00
same,BW Day 1,C57Bl/6 mice; 3 mg/kg i.p.,23.38 ± 0.54
same,BW Day 2,C57Bl/6 mice; 3 mg/kg i.p.,23.47 ± 0.57
same,BT (°C) naïve,C57Bl/6 mice; 10 mg/kg group,36.73 ± 1.13 °C
same,Manipulations naïve,C57Bl/6 mice; 10 mg/kg group,1.25 ± 0.96
same,Passive naïve,C57Bl/6 mice; 10 mg/kg group,0.25 ± 0.50
same,BT (°C) 15min,C57Bl/6 mice; 10 mg/kg i.p.,37.73 ± 0.46 °C
same,BT (°C) 4hr,C57Bl/6 mice; 10 mg/kg i.p.,36.83 ± 0.59 °C
same,BT (°C) 24hr,C57Bl/6 mice; 10 mg/kg i.p.,36.10 ± 0.52 °C
same,Manipulations 15min,C57Bl/6 mice; 10 mg/kg i.p.,0.50 ± 0.58
same,Manipulations 2hr,C57Bl/6 mice; 10 mg/kg i.p.,0.25 ± 0.50
same,Manipulations 4hr,C57Bl/6 mice; 10 mg/kg i.p.,0.50 ± 0.58
same,Passive 15min,C57Bl/6 mice; 10 mg/kg i.p.,0.00 ± 0.00
same,Passive 2hr,C57Bl/6 mice; 10 mg/kg i.p.,0.00 ± 0.00
same,Passive 4hr,C57Bl/6 mice; 10 mg/kg i.p.,0.00 ± 0.00
same,BW Day 1,C57Bl/6 mice; 10 mg/kg i.p.,23.62 ± 1.10
same,BW Day 2,C57Bl/6 mice; 10 mg/kg i.p.,22.94 ± 1.25
same,tolerability,C57Bl/6 mice,well tolerated
same,dopamine release,[1]; at higher concentrations,20–30%
same,change in norepinephrine release,[2],negligible change
